# Laboratory results from publication PMC8840560, “Naphthoquine: A Potent Broad-Spectrum Anti-Coronavirus Drug In Vitro” (Molecules, 2022).
# Like-named read-outs stand apart in the source and are kept apart here.
# Legend:
# SARS-CoV-2 [1] = assay: Time-of-addition assay against SARS-CoV-2 in Vero cells; assay type: cell-based; details: 10 µM, qRT-PCR at 48 h
# SARS-CoV-2 [2] = test system: SARS-CoV-2; design: method as in PMID 32194981, PMID 33995308; details: in vitro; read-out: IC50 anti-SARS-CoV-2 in vitro; cited from earlier work
# HCoV-229E = assay: CPE inhibition assay, HCoV-229E-infected Huh7 cells; assay type: cell-based; details: for IC50: Human coronavirus 229E
# HCoV-OC43 = assay: CPE inhibition assay, HCoV-OC43-infected H460 cells; assay type: cell-based; details: for IC50: Betacoronavirus 1, NCI-H460, HCoV-OC43 (100 TCID50) in H460 cells, CPE, about 72 h, Reed-Muench
# SARS-CoV-2 [3] = assay: Anti-SARS-CoV-2 activity in Vero cells by qRT-PCR of viral RNA in supernatant; assay type: cell-based; details: Severe acute respiratory syndrome coronavirus 2; SARS-CoV-2 (100 TCID50) in Vero cells, qRT-PCR of supernatant RNA at 48 h, 12 h pretreatment
# in vitro [4] = details: human, H460 cells
# in vitro [5] = details: human, Huh7 cells
compound,measurement,setting,value
"CCN(CC)CCCC(C)Nc1ccnc2cc(Cl)ccc12 (stereo not shown) [CQ, Chloroquine phosphate]","inhibition of SARS-CoV-2 infection at all time points (full-time, first 3 h, last 46 h)",SARS-CoV-2 [1],effectively inhibit SARS-CoV-2 infection at all time points
same,IC50,SARS-CoV-2 [2],< 10 µM
same,IC50,"HCoV-229E; Huh-7, 48 h",8.74 ± 7.27 µM
same,IC50,HCoV-OC43,3.16 ± 0.6 µM
same,IC50,SARS-CoV-2 [3],5.85 ± 0.97 µM
"CCN(CCO)CCCC(C)Nc1ccnc2cc(Cl)ccc12 (stereo not shown) [HCQ, hydroxychloroquine]",IC50,SARS-CoV-2 [2],< 10 µM
"NC(=O)c1ncn([C@@H]2O[C@H](CO)[C@@H](O)[C@H]2O)n1 [RBV, Ribavirin]",CC50 at 2 days,in vitro [4],318 µM
same,CC50 at 2 days,in vitro [5],409 µM
same,SI,HCoV-229E,26.54
same,IC50,"HCoV-229E; Huh-7, HCoV-229E (100 TCID50) in Huh7 cells, CPE, about 48 h, Reed-Muench, read-out: IC50",15.4 ± 5.57 µM
same,SI,HCoV-OC43,15.34
same,IC50,HCoV-OC43,20.7 ± 7.86 µM
OC(c1cc(C(F)(F)F)nc2c(C(F)(F)F)cccc12)C1CCCCN1 (stereo not shown) [mefloquine],IC50,SARS-CoV-2 [2],< 10 µM
